# Activity calls are given as the source filed them.
# Experiments:
# [1] = target: T1, Carboxy-terminal domain RNA polymerase II polypeptide A small phosphatase 1 (Homo sapiens, UniProt Q9GZU7); assay: inhibitors of CTDSP1, concentration-response testing, biochemical assay, absorbance-based, actives from ultra-high-throughput screening (AID 540297); format: functional
# T1 sequence (Q9GZU7 whole entry): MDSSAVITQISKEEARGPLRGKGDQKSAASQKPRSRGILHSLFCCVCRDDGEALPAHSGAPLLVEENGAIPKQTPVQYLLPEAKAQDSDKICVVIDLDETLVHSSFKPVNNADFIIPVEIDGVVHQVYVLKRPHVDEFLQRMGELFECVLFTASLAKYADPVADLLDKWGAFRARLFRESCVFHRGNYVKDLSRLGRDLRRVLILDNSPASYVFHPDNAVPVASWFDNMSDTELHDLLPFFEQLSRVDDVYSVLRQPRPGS
# [2] = target: T2, Apoptotic protease-activating factor 1 (Homo sapiens, UniProt O14727); assay: activation of Apaf-1 mediated apoptosis – fluorescent, uHTS hits, dose response (AID 588554); format: functional
# T2 sequence (O14727 whole entry): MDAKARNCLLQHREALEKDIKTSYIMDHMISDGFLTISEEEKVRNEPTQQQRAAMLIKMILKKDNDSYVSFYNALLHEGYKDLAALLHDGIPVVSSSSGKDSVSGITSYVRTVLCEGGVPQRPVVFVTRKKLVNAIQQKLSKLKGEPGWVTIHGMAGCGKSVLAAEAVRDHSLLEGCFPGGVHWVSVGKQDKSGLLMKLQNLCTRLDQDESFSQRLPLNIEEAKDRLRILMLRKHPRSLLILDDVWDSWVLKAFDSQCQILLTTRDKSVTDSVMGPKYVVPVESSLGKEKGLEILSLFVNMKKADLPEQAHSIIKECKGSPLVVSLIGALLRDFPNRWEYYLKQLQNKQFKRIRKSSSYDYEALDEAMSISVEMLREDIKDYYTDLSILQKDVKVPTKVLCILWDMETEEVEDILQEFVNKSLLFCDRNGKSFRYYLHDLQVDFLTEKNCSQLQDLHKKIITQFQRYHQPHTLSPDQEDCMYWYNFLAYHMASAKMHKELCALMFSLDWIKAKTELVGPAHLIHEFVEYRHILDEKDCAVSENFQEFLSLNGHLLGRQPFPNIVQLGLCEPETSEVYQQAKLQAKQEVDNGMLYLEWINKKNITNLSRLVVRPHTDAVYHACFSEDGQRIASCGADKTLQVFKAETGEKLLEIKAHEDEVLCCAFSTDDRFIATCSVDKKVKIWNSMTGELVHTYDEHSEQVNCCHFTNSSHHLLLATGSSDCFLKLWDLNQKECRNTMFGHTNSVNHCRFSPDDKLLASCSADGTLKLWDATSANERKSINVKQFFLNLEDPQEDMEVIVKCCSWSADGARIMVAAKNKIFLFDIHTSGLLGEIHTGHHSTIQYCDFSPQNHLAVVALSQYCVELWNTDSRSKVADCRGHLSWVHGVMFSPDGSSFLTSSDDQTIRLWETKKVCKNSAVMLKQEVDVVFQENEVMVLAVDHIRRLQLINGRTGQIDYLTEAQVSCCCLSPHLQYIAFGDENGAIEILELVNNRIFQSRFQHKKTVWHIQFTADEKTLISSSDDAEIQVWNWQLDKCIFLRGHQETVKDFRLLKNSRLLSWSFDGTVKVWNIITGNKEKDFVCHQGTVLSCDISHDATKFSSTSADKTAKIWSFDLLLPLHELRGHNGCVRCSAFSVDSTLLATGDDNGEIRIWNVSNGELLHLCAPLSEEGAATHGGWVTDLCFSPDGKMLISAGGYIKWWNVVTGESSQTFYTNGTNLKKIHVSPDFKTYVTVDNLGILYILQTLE
# [3] = target: DNA dC->dU-editing enzyme APOBEC-3A (Homo sapiens, UniProt P31941); assay: APOBEC3A DNA deaminase inhibitors, dose response, biochemical (AID 504722); format: functional
# DNA dC->dU-editing enzyme APOBEC-3A, sequence (P31941 whole entry): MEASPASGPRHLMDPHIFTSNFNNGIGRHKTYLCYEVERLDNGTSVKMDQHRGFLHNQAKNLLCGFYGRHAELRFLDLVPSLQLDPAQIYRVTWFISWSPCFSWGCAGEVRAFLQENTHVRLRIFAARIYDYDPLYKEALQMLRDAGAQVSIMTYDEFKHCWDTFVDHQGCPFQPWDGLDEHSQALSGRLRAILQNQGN
# [4] = target: DNA dC->dU-editing enzyme APOBEC-3G (Homo sapiens, UniProt Q9HC16); assay: Dose Response confirmation of small molecule APOBEC3G DNA Deaminase Inhibitors via a fluorescence-based single-stranded DNA deaminase assay. [Related pubchem assays (depositor defined):AID493012, AID493028]; format: functional
# DNA dC->dU-editing enzyme APOBEC-3G, sequence (Q9HC16 whole entry): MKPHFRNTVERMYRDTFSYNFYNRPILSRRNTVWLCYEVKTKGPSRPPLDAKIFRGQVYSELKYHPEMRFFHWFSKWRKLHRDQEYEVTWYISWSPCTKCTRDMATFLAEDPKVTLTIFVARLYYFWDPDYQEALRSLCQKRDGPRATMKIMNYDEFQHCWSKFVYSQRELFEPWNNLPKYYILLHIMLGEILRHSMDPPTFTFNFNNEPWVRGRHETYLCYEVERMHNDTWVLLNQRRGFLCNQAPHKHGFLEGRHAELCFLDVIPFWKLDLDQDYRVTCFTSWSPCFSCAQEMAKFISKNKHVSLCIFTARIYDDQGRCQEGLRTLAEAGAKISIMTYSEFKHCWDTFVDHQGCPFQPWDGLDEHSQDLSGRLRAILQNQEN
# [5] = target: Beta-adrenergic receptor kinase 1 (Homo sapiens, UniProt P25098); assay: aptamer displacement from bead-bound GRK2 – biochemical, cherry pick 1, bead flow cytometry, dose response (AID 504500)
# Beta-adrenergic receptor kinase 1, sequence (P25098 whole entry): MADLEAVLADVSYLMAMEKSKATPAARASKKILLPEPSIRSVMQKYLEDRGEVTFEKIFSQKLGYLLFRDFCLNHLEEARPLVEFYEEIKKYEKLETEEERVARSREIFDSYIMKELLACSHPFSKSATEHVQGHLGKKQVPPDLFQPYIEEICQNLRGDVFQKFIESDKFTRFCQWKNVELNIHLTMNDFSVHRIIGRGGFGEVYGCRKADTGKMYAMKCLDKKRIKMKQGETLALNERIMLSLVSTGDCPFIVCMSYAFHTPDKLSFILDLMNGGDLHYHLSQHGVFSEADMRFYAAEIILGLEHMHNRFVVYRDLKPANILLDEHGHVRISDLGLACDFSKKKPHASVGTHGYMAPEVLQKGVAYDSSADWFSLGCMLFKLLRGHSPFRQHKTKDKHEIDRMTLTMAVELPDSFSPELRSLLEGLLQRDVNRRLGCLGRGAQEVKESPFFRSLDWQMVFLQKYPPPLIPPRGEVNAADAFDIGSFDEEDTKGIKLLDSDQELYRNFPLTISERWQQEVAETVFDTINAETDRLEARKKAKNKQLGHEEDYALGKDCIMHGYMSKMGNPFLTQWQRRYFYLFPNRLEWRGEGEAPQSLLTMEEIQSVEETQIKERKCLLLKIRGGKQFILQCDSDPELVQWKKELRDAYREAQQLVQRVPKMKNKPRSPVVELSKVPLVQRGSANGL
# CAAX prenyl protease 2 = CAAX prenyl protease 2 (Homo sapiens, UniProt Q9Y256); assay: human Rce1 protease inhibitors, dose response, biochemical, yeast membranes, quenched-peptide fluorescence, cherry-pick (AID 588849)
# CAAX prenyl protease 2, sequence (Q9Y256 whole entry): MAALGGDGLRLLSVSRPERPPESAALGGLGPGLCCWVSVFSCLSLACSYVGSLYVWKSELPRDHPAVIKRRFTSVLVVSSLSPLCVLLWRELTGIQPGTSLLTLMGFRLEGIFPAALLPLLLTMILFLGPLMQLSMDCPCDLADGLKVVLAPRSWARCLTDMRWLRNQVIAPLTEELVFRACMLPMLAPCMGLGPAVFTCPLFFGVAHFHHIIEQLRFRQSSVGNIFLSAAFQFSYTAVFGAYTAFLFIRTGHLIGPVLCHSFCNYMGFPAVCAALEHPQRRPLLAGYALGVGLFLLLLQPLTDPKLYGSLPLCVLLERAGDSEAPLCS
# Trypsin = Trypsin (Sus scrofa, UniProt P00761); assay: porcine trypsin inhibitors, dose response, selectivity assay for Rce1 protease inhibitor project, biochemical, quenched peptide fluorescence, cherry-pick (AID 488789)
# Trypsin, sequence (P00761 whole entry): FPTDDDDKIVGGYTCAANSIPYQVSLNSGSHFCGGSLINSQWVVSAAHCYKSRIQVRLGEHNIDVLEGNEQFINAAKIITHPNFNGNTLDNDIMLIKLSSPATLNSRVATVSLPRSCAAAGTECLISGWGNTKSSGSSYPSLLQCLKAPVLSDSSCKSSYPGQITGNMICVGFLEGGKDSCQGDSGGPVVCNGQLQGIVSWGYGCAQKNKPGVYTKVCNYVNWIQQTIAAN
# CAAX prenyl protease 1 = CAAX prenyl protease 1 (Saccharomyces cerevisiae S288c, UniProt P47154); assay: Ste24 protease inhibitors, dose response, biochemical, S. cerevisiae, plate reader, cherry-pick (AID 488815)
# CAAX prenyl protease 1, sequence (P47154 whole entry): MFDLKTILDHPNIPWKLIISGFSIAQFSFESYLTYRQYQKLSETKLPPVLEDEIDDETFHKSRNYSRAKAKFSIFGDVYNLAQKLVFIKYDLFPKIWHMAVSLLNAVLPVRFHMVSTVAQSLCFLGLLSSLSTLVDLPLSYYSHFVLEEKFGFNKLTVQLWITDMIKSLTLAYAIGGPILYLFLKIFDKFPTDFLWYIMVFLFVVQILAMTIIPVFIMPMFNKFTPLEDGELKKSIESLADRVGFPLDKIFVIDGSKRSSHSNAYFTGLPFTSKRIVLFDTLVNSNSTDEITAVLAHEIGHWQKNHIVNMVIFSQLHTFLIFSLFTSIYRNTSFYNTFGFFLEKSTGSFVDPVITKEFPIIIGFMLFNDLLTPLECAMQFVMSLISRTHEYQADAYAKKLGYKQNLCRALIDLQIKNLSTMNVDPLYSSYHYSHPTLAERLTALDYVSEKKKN
# HEK293 [6] = assay: NOD2 signaling inhibitors in MDP-stimulated cells, cell-based, uHTS, luminescence (AID 2001); format: functional; conditions: Homo sapiens
# [7] = target: Nucleotide-binding oligomerization domain-containing protein 2 (Homo sapiens, UniProt Q9HC29); assay: NOD2 signaling inhibitors, cell-based, luminescence, uHTS, HEK293 (AID 1566); format: functional
# Nucleotide-binding oligomerization domain-containing protein 2, sequence (Q9HC29 whole entry, the tested form may be a part): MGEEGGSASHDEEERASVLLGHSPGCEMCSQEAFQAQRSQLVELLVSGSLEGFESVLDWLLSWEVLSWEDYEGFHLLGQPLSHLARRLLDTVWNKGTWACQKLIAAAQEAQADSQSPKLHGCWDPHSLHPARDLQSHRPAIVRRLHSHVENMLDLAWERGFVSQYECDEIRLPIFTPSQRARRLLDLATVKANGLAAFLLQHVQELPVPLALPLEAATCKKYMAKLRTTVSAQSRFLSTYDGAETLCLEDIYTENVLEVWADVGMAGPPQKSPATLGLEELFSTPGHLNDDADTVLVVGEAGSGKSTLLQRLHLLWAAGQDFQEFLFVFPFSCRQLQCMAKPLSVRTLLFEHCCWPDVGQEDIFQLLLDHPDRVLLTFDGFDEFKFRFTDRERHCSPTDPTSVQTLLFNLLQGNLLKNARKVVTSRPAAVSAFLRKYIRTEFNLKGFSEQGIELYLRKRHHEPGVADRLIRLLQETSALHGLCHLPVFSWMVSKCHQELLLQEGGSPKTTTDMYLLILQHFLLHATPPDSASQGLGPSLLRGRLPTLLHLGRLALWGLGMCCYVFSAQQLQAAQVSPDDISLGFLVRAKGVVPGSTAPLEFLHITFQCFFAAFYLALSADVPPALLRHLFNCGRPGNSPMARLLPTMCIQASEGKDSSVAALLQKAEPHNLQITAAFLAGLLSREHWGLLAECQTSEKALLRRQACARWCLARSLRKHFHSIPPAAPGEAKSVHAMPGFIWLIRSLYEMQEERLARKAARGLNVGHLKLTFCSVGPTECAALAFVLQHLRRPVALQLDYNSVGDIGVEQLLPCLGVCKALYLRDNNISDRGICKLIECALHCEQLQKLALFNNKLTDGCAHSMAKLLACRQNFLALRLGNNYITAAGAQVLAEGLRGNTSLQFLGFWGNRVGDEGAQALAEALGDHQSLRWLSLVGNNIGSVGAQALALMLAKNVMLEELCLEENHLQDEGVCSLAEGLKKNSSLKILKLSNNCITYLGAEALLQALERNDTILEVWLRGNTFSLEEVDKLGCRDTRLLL
# [8] = target: T3, Microphthalmia-associated transcription factor (Homo sapiens, UniProt O75030); assay: TRPM1 promoter luciferase signal decrease, dose response, MITF inhibitor project, cell-based, SK-MEL-5, cherry-picked, set 3 (AID 493073); format: functional
# T3 sequence (O75030 whole entry): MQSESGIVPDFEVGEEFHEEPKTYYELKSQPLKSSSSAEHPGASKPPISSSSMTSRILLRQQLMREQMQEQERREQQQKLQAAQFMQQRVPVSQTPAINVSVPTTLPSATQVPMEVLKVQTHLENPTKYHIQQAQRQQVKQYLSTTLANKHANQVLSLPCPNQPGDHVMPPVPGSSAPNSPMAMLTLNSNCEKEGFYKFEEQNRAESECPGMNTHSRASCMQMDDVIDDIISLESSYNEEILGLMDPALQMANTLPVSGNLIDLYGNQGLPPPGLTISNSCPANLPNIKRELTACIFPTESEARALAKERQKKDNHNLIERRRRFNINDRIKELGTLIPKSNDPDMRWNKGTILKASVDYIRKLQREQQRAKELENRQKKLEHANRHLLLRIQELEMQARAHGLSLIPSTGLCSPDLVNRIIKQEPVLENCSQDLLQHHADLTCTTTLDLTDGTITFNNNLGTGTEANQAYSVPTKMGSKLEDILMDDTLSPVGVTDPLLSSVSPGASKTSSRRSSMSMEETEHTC
# HEK293 [9] = assay: NOD1 signaling inhibitors, primary screen, cell-based, luminescence, uHTS (AID 1578); format: functional; conditions: Homo sapiens
# HEK293 [10] = assay: SAR Analysis of small molecule inhibitors of T-cell specific antigen receptor-induced NF-kB activation in a HEK-293T cell line using a luminescence assay - Set 2. [Related pubchem assays (depositor defined):AID435003, AID435012, AID489026]; format: functional, cell-based; conditions: Homo sapiens
# HEK293 [11] = assay: cytotoxicity in HEK293T NF-kB-Luc cells, SAR follow-up, cytotoxicity control for NF-kB activator project, cell-based, resazurin fluorescence (AID 493251); format: functional; conditions: Homo sapiens
# HEK293 [12] = assay: cells; format: functional, cell-based; conditions: Homo sapiens
# Jurkat = assay: SAR Analysis of small molecule inhibitors of T-cell specific antigen receptor-induced NF-kB activation in a Jurkat cell line using a luminescence assay - Set 2. [Related pubchem assays (depositor defined):AID435003, AID435012, AID465]; format: functional, cell-based; conditions: Homo sapiens
# HEK293 [13] = assay: cells; format: functional, cell-based; conditions: Homo sapiens; remark: listed apart in the source
# HEK293 [14] = assay: cells; format: functional, cell-based; conditions: Homo sapiens; remark: listed apart in the source
# [15] = HEp-2 cell cytotoxicity, dose response, cytotoxicity control for RSV inhibitor project, HTS (AID 2410); format: functional; conditions: human respiratory syncytial virus
# Vero = assay: cells; format: functional, cell-based; conditions: Chlorocebus sabaeus
# Escherichia coli = assay: microbe, parasite or virus in culture
# [16] = target: Glycogen synthase kinase-3 beta (Homo sapiens, UniProt P49841); assay: Inhibition of Human GSK-3 beta Activity Measured in Biochemical System Using Microfluidics - 2063-05_Inhibitor_Dose_DryPowder_Activity. [Related pubchem assays (depositor defined):AID2709]
# Glycogen synthase kinase-3 beta, sequence (P49841 whole entry): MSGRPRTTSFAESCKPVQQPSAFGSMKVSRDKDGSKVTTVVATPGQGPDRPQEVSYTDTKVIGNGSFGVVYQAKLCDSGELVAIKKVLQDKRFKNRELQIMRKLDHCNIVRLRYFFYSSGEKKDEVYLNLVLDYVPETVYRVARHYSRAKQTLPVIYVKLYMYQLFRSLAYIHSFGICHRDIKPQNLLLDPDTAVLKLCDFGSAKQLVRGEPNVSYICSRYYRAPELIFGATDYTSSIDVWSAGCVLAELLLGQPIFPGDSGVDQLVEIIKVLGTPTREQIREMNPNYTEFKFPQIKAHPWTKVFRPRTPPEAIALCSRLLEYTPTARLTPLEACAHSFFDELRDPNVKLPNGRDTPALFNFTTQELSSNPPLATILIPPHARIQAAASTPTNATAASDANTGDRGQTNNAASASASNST
# [17] = target: Glycogen synthase kinase-3 alpha (Homo sapiens, UniProt P49840); assay: Inhibition of Human GSK-3 alpha Activity Measured in Biochemical System Using Microfluidics - 2063-06_Inhibitor_Dose_DryPowder_Activity. [Related pubchem assays (depositor defined):AID2709]
# Glycogen synthase kinase-3 alpha, sequence (P49840 whole entry): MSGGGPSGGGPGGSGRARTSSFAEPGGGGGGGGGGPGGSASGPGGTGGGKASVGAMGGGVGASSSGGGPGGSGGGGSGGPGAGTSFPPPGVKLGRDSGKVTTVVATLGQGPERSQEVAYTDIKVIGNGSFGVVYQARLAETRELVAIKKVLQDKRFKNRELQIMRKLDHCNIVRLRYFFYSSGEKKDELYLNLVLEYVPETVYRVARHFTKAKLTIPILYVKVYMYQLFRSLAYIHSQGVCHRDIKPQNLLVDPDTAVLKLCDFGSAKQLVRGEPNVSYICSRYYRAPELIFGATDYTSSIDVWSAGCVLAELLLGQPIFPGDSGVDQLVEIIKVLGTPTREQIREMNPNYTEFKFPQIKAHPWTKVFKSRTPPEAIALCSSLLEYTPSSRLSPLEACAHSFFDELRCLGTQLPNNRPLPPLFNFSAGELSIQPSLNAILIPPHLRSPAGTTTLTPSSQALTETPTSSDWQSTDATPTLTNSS
smiles,measurement,setting,value
C=C(C)C(=O)Nc1cccc(C2=NOC3(C2)C[C@H](C(N)=O)N(C(=O)c2ccccc2)C3)c1 (stereo partly drawn),IC50,[1],3.85 µM (active)
same,EC50,[2],17.1 µM (active)
same,IC50,[3],> 100 µM (inactive)
same,IC50,[4],14.3 µM (active)
same,EC50,[5],12.5 µM (inactive)
CC(Oc1ccc2c3c(c(=O)oc2c1)CCCC3)C(=O)NC1CC(C)(C)NC(C)(C)C1 (stereo not drawn),AC50,CAAX prenyl protease 2,16.2 µM (active)
same,AC50,Trypsin,9.81 µM (active)
same,AC50,CAAX prenyl protease 1,2.88 µM (active)
O=C(Nc1ccc2oc(-c3cccnc3)nc2c1)c1ccc([N+](=O)[O-])o1,IC50,HEK293 [6],7.39 µM (active)
same,EC50,[7],> 20 µM (inactive)
same,AC50,[8],14.2 µM (active)
same,EC50,HEK293 [9],7.26 µM (active)
same,IC50,HEK293 [10],51.5 µM (inactive)
same,IC50,HEK293 [11],> 80 µM (inactive)
same,IC50,HEK293 [12],> 20 µM (inactive)
same,IC50,Jurkat,38.7 µM (inactive)
same,IC50,HEK293 [13],> 20 µM (inactive)
same,IC50,HEK293 [14],4.02 µM (active)
CC(Sc1nnc(Nc2ccccc2)s1)C(=O)Nc1nc(-c2ccccc2)cs1 (stereo not drawn),CC50,[15],> 50 µM (active)
same,IC50,Vero,> 25 µM (active)
COc1ccc(S(=O)(=O)N2CCN(CC(=O)Nc3c(C)n[nH]c3C)CC2)cc1OC,AC50,Escherichia coli,62.1 µM (active)
CCOC(=O)c1nnn(-c2nonc2N)c1CSc1ccc(C)cc1,AC50,[16],1.19 µM (active)
same,AC50,[17],8.32 µM (active)

# From ChEMBL document CHEMBL1201862, “PubChem BioAssay data set” (2004)
